Each structure is given as a SMILES string.

The source of these data is the supplement of paper PMC11616607.

The first assay concerns CAOV3. In words: drug sensitivity score (DSS) from 5-point dose-response viability curve (DSS (area-under-curve based score)); higher = more sensitive (stronger growth inhibition or killing); extreme values may be limits of the assay. As to conditions: exposure time: 72 h; concentration range: 5 concentrations over 10,000-fold range. A digest of the protocol: (§1)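 Ovarian cancer and normal ovarian cell lines were tested in 384-well plates. Drugs were acoustically dispensed (Echo 550) in DMSO or water at five concentrations spanning a 10,000-fold range, then 1,500 cells per well were added and incubated 3 days at 37°C, 5% CO2. Viability was read by CellTiter-Glo luminescence on a PHERAstar FS. Drug sensitivity score was derived per cell line and drug with Breeze software; higher means more sensitive, zero means no response.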
Compound `CCCCCOC(=O)Nc1nc(=O)n([C@@H]2O[C@H](C)[C@@H](O)[C@H]2O)cc1F` [Capecitabine] gave a drug sensitivity score of 0.2. `COc1ccc2[nH]cc(/C=C3\C(=O)Nc4ccc(NC(=O)CCN5CCCCC5)cc43)c2c1` registered a drug sensitivity score of 6.3. On to `CNC(=O)c1nn(C)c2c1C(C)(C)Cc1cnc(Nc3ccc(N4CCN(C)CC4)cc3)nc1-2` [Milciclib], for which the drug sensitivity score stood at 6.8. On the same count and under the same terms, then `C[C@H]1C[C@@H]2[C@H]([C@@H](O)C[C@@]3(C)[C@H]2CC[C@]3(O)C(=O)CO)[C@@]2(C)C=CC(=O)C=C12` [Methylprednisolone], with 0; and `CCc1c(C(=O)C(N)=O)c2c(OCC(=O)O)cccc2n1Cc1ccccc1` [Varespladib], with 0; and `Cc1ccc(C(=O)Nc2ccc(Oc3cc4cnn(C)c4cc3-c3cn[nH]c3)c(F)c2)c(=O)n1-c1ccc(F)cc1` [Merestinib], with 0. Turning to `Clc1ccccc1C(c1ccccc1)(c1ccccc1)n1cccn1` [TRAM-34], the drug sensitivity score stood at 0. Same read-out and setting: the result for `Cc1cc(Nc2cc(N3CCN(C)CC3)nc(/C=C/c3ccccc3)n2)n[nH]1` [ENMD-2076] reads 10.3; that for `O=C(Nc1cccc(Nc2ncc(Br)c(NCCc3cnc[nH]3)n2)c1)N1CCCC1` [BX-912], 10.3; that for `COc1cc(OC)c(/C=C/S(=O)(=O)Cc2ccc(OC)c(NCC(=O)O)c2)c(OC)c1` [Rigosertib], 23.4.

Compound `CCS(=O)(=O)c1cccc(-c2cc(C(=O)NC3CCN(C)CC3)c(C)c3[nH]c4ncc(C)cc4c23)c1` [TAK-901] gave a drug sensitivity score of 16.9. The compound `CC(C)NC(=O)COc1cccc(-c2nc(Nc3ccc4[nH]ncc4c3)c3ccccc3n2)c1` [KD025] displayed a drug sensitivity score of 0.4. Regarding `COc1cccc(-c2ccc(NC(=O)C3=C(C(=O)O)CCC3)c(F)c2)c1` [Vidofludimus], the drug sensitivity score was determined as 0. Still for that read-out and setting: the result for `C=CCN(/C=C1/C(=O)O[C@H](COC)[C@@]2(C)C1=C(O)C(=O)C1=C2[C@H](OC(C)=O)C[C@]2(C)C(=O)CC[C@@H]12)CC=C` [Sonolisib] reads 0; that for `C=C(c1ccc(C(=O)O)cc1)c1cc2c(cc1C)C(C)(C)CCC2(C)C` [Bexarotene], 1.5. Same read-out and setting: then `CC1CCC(n2c3cnccc3c3cnc(Nc4ccc5c(n4)CCN(C(=O)CO)C5)nc32)CC1` (configuration not stated) [AMG-925], with 0.

In the next assay the test system is Kuramochi. The assay is described as above. As to conditions: exposure time: 72 h; concentration range: 5 concentrations over 10,000-fold range. A digest of the protocol: as §1
Consider `C[C@@]1(C(=O)Nc2ccc(F)nc2)CCCN1c1nc(Nc2cc(C3CC3)n[nH]2)c2cccn2n1`, for which the drug sensitivity score amounted to 4.8. The same measure, in the same setting: the result for `Nc1nc2[nH]cc(CCc3ccc(C(=O)N[C@@H](CCC(=O)O)C(=O)O)cc3)c2c(=O)[nH]1` [Pemetrexed] reads 5.8; that for `CCC(C)n1ncn(-c2ccc(N3CCN(c4ccc(OCC5COC(Cn6cncn6)(c6ccc(Cl)cc6Cl)O5)cc4)CC3)cc2)c1=O` (configuration not stated) [Itraconazole], 1.1; that for `NCC(=O)Nc1ccc(-n2nc(C(F)(F)F)cc2-c2ccc3c(ccc4ccccc43)c2)cc1`, 1.4. Same read-out and setting: then `O=C1CN2Cc3c(ccc(Cl)c3Cl)N=C2N1` [Anagrelide], with 0; and `CN1CCC(COc2cnc(-c3cccc(Cn4nc(-c5cccc(C#N)c5)ccc4=O)c3)nc2)CC1` [Tepotinib], with 0.

On to `Cc1cc2c(F)c(Oc3ncnn4cc(OC[C@@H](C)O)c(C)c34)ccc2[nH]1` [Brivanib], for which the drug sensitivity score is 0. In turn, `COc1cc2c(NC3CCN(C(C)C)CC3)nc(N3CCC(F)(F)CC3)nc2cc1OCCCN1CCCC1` [UNC0642] yielded a drug sensitivity score of 0.

With `Nc1ccn([C@@H]2O[C@H](CO)[C@@H](O)C2(F)F)c(=O)n1` [Gemcitabine], the drug sensitivity score is 0.

On to `Cc1ccc(C(=O)Nc2ccc(CN3CCN(C)CC3)c(C(F)(F)F)c2)cc1C#Cc1cnc2cccnn12` [Ponatinib], for which the drug sensitivity score was determined as 9.3. The compound `Oc1ccc2c(c1)CC[C@H](c1ccccc1)[C@@H]2c1ccc(OCCN2CCCC2)cc1` [Lasofoxifene] displayed a drug sensitivity score of 0.3. As for `NCCNc1ccc(NCCN)c2c1C(=O)c1ccncc1C2=O` [Pixantrone], the drug sensitivity score was found to be 0.1. As for `COc1cc(Nc2ncc(F)c(Nc3ccc4c(n3)N(COP(=O)(O)O)C(=O)C(C)(C)O4)n2)cc(OC)c1OC` [Fostamatinib], the drug sensitivity score came out at 2.4. For `C=CC(=O)Nc1cccc(Nc2nc(Nc3ccc(N4CCN(C(C)=O)CC4)cc3OC)ncc2C(F)(F)F)c1` [Rociletinib], the drug sensitivity score worked out at 3.6. `O=C(O)c1ccc(O)c2ncccc12` [IOX-1] registered a drug sensitivity score of 1.6.

Consider `CCCCCOC(=O)Nc1nc(=O)n([C@@H]2O[C@H](C)[C@@H](O)[C@H]2O)cc1F` [Capecitabine], for which the drug sensitivity score came to 0. Take `COc1ccc2[nH]cc(/C=C3\C(=O)Nc4ccc(NC(=O)CCN5CCCCC5)cc43)c2c1`: the drug sensitivity score came out at 5.7. As for `CNC(=O)c1nn(C)c2c1C(C)(C)Cc1cnc(Nc3ccc(N4CCN(C)CC4)cc3)nc1-2` [Milciclib], the drug sensitivity score worked out at 10.1. With `C[C@H]1C[C@@H]2[C@H]([C@@H](O)C[C@@]3(C)[C@H]2CC[C@]3(O)C(=O)CO)[C@@]2(C)C=CC(=O)C=C12` [Methylprednisolone], the drug sensitivity score was 0. `CCc1c(C(=O)C(N)=O)c2c(OCC(=O)O)cccc2n1Cc1ccccc1` [Varespladib] gave a drug sensitivity score of 0.

In the case of `Cc1ccc(C(=O)Nc2ccc(Oc3cc4cnn(C)c4cc3-c3cn[nH]c3)c(F)c2)c(=O)n1-c1ccc(F)cc1` [Merestinib], the drug sensitivity score was found to be 1.1. As for `Clc1ccccc1C(c1ccccc1)(c1ccccc1)n1cccn1` [TRAM-34], the drug sensitivity score worked out at 0. The compound `Cc1cc(Nc2cc(N3CCN(C)CC3)nc(/C=C/c3ccccc3)n2)n[nH]1` [ENMD-2076] showed a drug sensitivity score of 8.5.

As to `O=C(Nc1cccc(Nc2ncc(Br)c(NCCc3cnc[nH]3)n2)c1)N1CCCC1` [BX-912], the drug sensitivity score worked out at 1.4. The same measure, in the same setting: then `COc1cc(OC)c(/C=C/S(=O)(=O)Cc2ccc(OC)c(NCC(=O)O)c2)c(OC)c1` [Rigosertib], with 14.9. On the same count and under the same terms, then `CCS(=O)(=O)c1cccc(-c2cc(C(=O)NC3CCN(C)CC3)c(C)c3[nH]c4ncc(C)cc4c23)c1` [TAK-901], with 6.8. For the compound `CC(C)NC(=O)COc1cccc(-c2nc(Nc3ccc4[nH]ncc4c3)c3ccccc3n2)c1` [KD025], the drug sensitivity score is 3.8. Consider `COc1cccc(-c2ccc(NC(=O)C3=C(C(=O)O)CCC3)c(F)c2)c1` [Vidofludimus], for which the drug sensitivity score came out at 0. Regarding `C=CCN(/C=C1/C(=O)O[C@H](COC)[C@@]2(C)C1=C(O)C(=O)C1=C2[C@H](OC(C)=O)C[C@]2(C)C(=O)CC[C@@H]12)CC=C` [Sonolisib], the drug sensitivity score was 0. On the same count and under the same terms, the result for `C=C(c1ccc(C(=O)O)cc1)c1cc2c(cc1C)C(C)(C)CCC2(C)C` [Bexarotene] reads 0.1. On the same count and under the same terms, the result for `CC1CCC(n2c3cnccc3c3cnc(Nc4ccc5c(n4)CCN(C(=O)CO)C5)nc32)CC1` (configuration not stated) [AMG-925] reads 0.1.
